Test results published in ChEMBL document CHEMBL1667765, “Syntheses, antiproliferative activity and theoretical characterization of acitretin-type retinoids with changes in the lipophilic part” (2011).
Active and inactive are the calls of the source. No cut-off for these calls is given here.

Tests used:
MCF7 [1] = experiment: Antiproliferative activity against human MCF7 cells expressing estrogen receptor after 72 hrs by WST-1 assay; type: functional, cell-based
MCF7 [2] = experiment: Antiproliferative activity against human MCF7 cells expressing estrogen receptor at 10 uM after 72 hrs by WST-1 assay; type: functional; conditions: MCF7, 72 h
MCF7 [3] = experiment: Antiproliferative activity against human MCF7 cells expressing estrogen receptor after 72 hrs by MTT assay; type: functional, cell-based
MCF7 [4] = experiment: Induction of apoptosis in human MCF7 cells expressing estrogen receptor assessed as increase of PARP cleavage at 10^-5 M after 4 hrs by Western blotting; type: functional, cell-based
MCF7 [5] = experiment: Induction of apoptosis in human MCF7 cells expressing estrogen receptor assessed as increase of PARP cleavage at 10^-5 M after 9 hrs by Western blotting; type: functional, cell-based
MCF7 [6] = experiment: Cell cycle arrest in human MCF7 cells expressing estrogen receptor at 10^-5 M after 9 to 48 hrs using propidium iodide staining by FACS analysis; type: functional, cell-based
[7] = target: RAC-alpha serine/threonine-protein kinase (Homo sapiens) (UniProt P31749); experiment: Activation of Akt in human MCF7 cells expressing estrogen receptor at 10^-5 M after 4 hrs by Western blotting; type: functional, cell-based
RAC-alpha serine/threonine-protein kinase (Homo sapiens), sequence (P31749 whole entry): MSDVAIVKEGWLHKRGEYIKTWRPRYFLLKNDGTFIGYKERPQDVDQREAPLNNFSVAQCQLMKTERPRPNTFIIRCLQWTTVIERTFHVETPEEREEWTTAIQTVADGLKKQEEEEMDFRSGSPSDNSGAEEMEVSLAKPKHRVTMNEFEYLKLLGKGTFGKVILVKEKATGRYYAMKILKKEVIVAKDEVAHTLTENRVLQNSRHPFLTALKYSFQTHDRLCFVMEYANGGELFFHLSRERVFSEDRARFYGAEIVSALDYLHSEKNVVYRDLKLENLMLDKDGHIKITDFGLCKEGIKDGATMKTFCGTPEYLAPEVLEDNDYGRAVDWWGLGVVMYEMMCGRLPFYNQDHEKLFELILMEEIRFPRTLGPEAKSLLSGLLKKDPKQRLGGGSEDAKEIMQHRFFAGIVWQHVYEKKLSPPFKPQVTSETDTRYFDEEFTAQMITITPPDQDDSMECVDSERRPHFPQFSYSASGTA

[8] = target: RAC-alpha serine/threonine-protein kinase (Homo sapiens) (UniProt P31749); experiment: Activation of Akt in human MCF7 cells expressing estrogen receptor at 10^-5 M after 9 hrs by Western blotting; type: functional, cell-based
MCF7 [9] = experiment: Antiproliferative activity against human MCF7 cells expressing estrogen receptor assessed as cell growth inhibition 50 uM after 72 hrs by WST-1 assay relative to control; type: functional
MCF7 [10] = experiment: Antiproliferative activity against human MCF7 cells expressing estrogen receptor assessed as cell growth inhibition 5 uM after 72 hrs by WST-1 assay relative to control; type: functional

For COc1cc(OC)c(/C=C/C(C)=C/C=C/C(C)=C/C(=O)O)c(OC)c1, which inhibition (MCF7 [1]) is on record?
Its inhibition is “Active”.

What about the inhibition at 10 µM (MCF7 [2]) of the same compound?
Its inhibition at 10 µM is 52%.

What about the inhibition (MCF7 [3]) of the same compound?
The inhibition was “Active”.

And the Activity (MCF7 [4])?
The Activity was “inactive”.

What about the Activity (MCF7 [5]) of the same compound?
The Activity was “inactive”.

What about the Activity (MCF7 [6]) of the same compound?
Its Activity is “inactive”.

What about the Activity [7] of the same compound?
The Activity was “inactive”.

What about the Activity [8] of the same compound?
The Activity was “inactive”.

What about the “inhibition (INH)” value (MCF7 [9]) of the same compound?
The value was -53%.

With CC(/C=C/c1ccc2ccccc2c1)=C\C=C\C(C)=C\C(=O)O as the compound, how does the “inhibition (INH)” value (MCF7 [9]) read?
The value was -25%.

COc1ccc2cc(/C(C)=C/C=C/C(C)=C/C(=O)O)ccc2c1 was tested. Which “inhibition (INH)” value (MCF7 [9]) did it give?
The value was -32%.

With CN[C@@H]1C[C@H]2O[C@@](C)([C@@H]1OC)n1c3ccccc3c3c4c(c5c6ccccc6n2c5c31)C(=O)NC4 as the compound, how does the Activity (MCF7 [4]) read?
The Activity was “Active”.

What about the Activity (MCF7 [5]) of the same compound?
The Activity was “Active”.

For CC(/C=C/c1ccc2ccc3cccc4ccc1c2c34)=C\C=C\C(C)=C\C(=O)O, which “inhibition (INH)” value (MCF7 [10]) is on record?
The value was 5.2%.

And the “inhibition (INH)” value (MCF7 [9])?
Its value is 4%.

For COc1cc(C)c(/C=C/C(C)=C/C=C/C(C)=C/C(=O)O)c(C)c1C, which inhibition (MCF7 [1]) is on record?
The inhibition was “Dose-dependent effect”.

With CC1=C(/C=C/C(C)=C/C=C/C(C)=C/C(=O)O)C(C)(C)CCC1 [TRETINOIN] as the compound, how does the “inhibition (INH)” value (MCF7 [9]) read?
The value was 3.1%.

How did the “inhibition (INH)” value (MCF7 [9]) turn out when CC(/C=C/c1ccc(N(C)C)cc1)=C\C=C\C(C)=C\C(=O)O was run?
Its value is 5%.

COc1ccc(/C=C/C(C)=C/C=C/C(C)=C/C(=O)O)cc1OC was tested. Which “inhibition (INH)” value (MCF7 [9]) did it give?
Its value is -30%.

With CC(/C=C/C=C(\C)c1ccc2ccc3cccc4ccc1c2c34)=C\C(=O)O as the compound, how does the “inhibition (INH)” value (MCF7 [9]) read?
Its value is 8%.

CC(/C=C/c1cc(F)c(F)cc1F)=C\C=C\C(C)=C\C(=O)O was tested. Which “inhibition (INH)” value (MCF7 [10]) did it give?
The value was 2%.

And the “inhibition (INH)” value (MCF7 [9])?
The value was 10%.

With CC(/C=C/c1ccc(C(F)(F)F)cc1C(F)(F)F)=C\C=C\C(C)=C\C(=O)O as the compound, how does the “inhibition (INH)” value (MCF7 [10]) read?
The value was 13.9%.

What about the “inhibition (INH)” value (MCF7 [9]) of the same compound?
Its value is 6%.

For CC(/C=C/C=C(\C)c1ccc2cc3ccccc3cc2c1)=C\C(=O)O, which “inhibition (INH)” value (MCF7 [9]) is on record?
Its value is 15%.
